This is an account of results in article PMC11171525 (Cells, 2024).

One test has as its system PpCM2. Put plainly: CM activity assay, recombinant PpCM2 (disappearance of chorismate at 274 nm). It counts as biochemical, Pinus pinaster. The following applies: for impact on activity (activation or inhibition), effector screening: threshold […] (Figure S2). The procedure:
(§1) Similarly, the effect on CM activity of decreasing concentrations of the amino acids Phe, Tyr, and Trp was determined.
(§2) To study their catalytic properties, P. pinaster PpCM1 and PpCM2 were functionally expressed in E. coli, including N-terminal His-tags, lacking the predicted chloroplast signal peptides, and were subsequently purified with Ni^2+-affinity chromatography.

The next test deals with PpCM1. Put plainly: CM activity assay, recombinant PpCM1 (disappearance of chorismate at 274 nm). It counts as biochemical, Pinus pinaster. To be noted: for impact on activity (activation or inhibition), effector screening: threshold […] (Figure S2). The procedure: as §1, §2
The test system of another test is CMs from mosses. The following applies: substrate chorismate; ref [30]; cited from earlier work.
The next test deals with CMs from lycophytes. The following applies: substrate chorismate; ref [30]; cited from earlier work.
The mark [1] stands for this setting: 2 mM amino acid, 1 mM chorismate.
Where [2] appears, read: inhibition of CM activity by Phe, read-out: EC50 (Phe).
Where [3] appears, read: activation of CM activity by Trp, read-out: EC50 (Trp).
[4] abbreviates: substrate chorismate, 50 mM Tris pH 8, 30 °C.
The mark [5] stands for this setting: substrate chorismate, turnover rate.

Structures are written as SMILES. Read-outs that look alike come from different tables or passages of the source. Where only a bound is given, the exact number is not on record here.

As usually defined, the EC50 is the concentration needed to bring the measured effect to its halfway point. Regarding `N[C@@H](Cc1ccccc1)C(=O)O` [Phe, phenylalanine], the results for the “reduction in activity compared to controls” value in the test on PpCM2 (setting [1]) and in the test on PpCM1 (setting [1]) were 3 fold and 9.6 fold, respectively. Also, the “impact on activity (activation or inhibition), effector screening” value in the test with PpCM2 (2 mM amino acid) and with PpCM1 (2 mM amino acid) was above 1.5 fold each time. Further, the retained activity with PpCM2 (in the presence of 2 mM Phe) is 30–35%. Besides, the figures for the EC50 with PpCM2 (setting [2]) and in the test with PpCM1 (setting [2]) were 88 µM and 36 µM, respectively.
As to `N[C@@H](Cc1c[nH]c2ccccc12)C(=O)O` [Trp, tryptophan], the increase in activity in the test with PpCM2 (setting [1]) turned out to be 1.7 fold; with PpCM1 (setting [1]), 3.1 fold. Besides, the “impact on activity (activation or inhibition), effector screening” value in the test on PpCM2 (2 mM amino acid) and in the test on PpCM1 (2 mM amino acid) was above 1.5 fold in each case. Moreover, the EC50 in the test on PpCM2 (setting [3]) and in the test on PpCM1 (setting [3]) was around 0.1 µM in each case.
As for `N[C@@H](Cc1ccc(O)cc1)C(=O)O` [Tyr, tyrosine], the “reduction in activity compared to controls” value in the test on PpCM2 (setting [1]) was 10.1 fold; in the test with PpCM1 (setting [1]) it was 11.4 fold. For the same molecule, the “impact on activity (activation or inhibition), effector screening” value in the test with PpCM2 (2 mM amino acid) and in the test with PpCM1 (2 mM amino acid) was above 1.5 fold each time.
The Km is the substrate concentration at which the rate is half of its maximum. Consider `C=C(O[C@@H]1C=C(C(=O)O)C=C[C@H]1O)C(=O)O` [chorismate], for which the Km in the test on PpCM2 (setting [4]) is 1700 µM; in the test with PpCM1 (setting [4]), 1600 µM. The Kcat was 35 s⁻¹ in the test on PpCM2 (setting [5]), 19.5 to 20.7 s⁻¹ with CMs from mosses, 29.4 s⁻¹ in the test on PpCM1 (setting [5]) and 18.8 s⁻¹ in the test with CMs from lycophytes.
